Data from patent US8431593B2, “Heteroaryl amide derivatives” (H. Lundbeck A/S, priority 2006, dated 2013).

target: T1, P2X7 receptor (Homo sapiens, UniProt Q99572); test: P2X7 calcium mobilization assay, high throughput, antagonist activity (Example 4A); assay type: cell-based; conditions: 50% decrease in the fluorescence response of cells exposed to 80 μM of 2′(3′)-O-(4-benzoyl-benzoyl)adenosine 5′-triphosphate; determined as in Example 4A; read-out: IC50
T1 construct: host or cells: SH-SY5Y
T1 sequence (Q99572 1-595): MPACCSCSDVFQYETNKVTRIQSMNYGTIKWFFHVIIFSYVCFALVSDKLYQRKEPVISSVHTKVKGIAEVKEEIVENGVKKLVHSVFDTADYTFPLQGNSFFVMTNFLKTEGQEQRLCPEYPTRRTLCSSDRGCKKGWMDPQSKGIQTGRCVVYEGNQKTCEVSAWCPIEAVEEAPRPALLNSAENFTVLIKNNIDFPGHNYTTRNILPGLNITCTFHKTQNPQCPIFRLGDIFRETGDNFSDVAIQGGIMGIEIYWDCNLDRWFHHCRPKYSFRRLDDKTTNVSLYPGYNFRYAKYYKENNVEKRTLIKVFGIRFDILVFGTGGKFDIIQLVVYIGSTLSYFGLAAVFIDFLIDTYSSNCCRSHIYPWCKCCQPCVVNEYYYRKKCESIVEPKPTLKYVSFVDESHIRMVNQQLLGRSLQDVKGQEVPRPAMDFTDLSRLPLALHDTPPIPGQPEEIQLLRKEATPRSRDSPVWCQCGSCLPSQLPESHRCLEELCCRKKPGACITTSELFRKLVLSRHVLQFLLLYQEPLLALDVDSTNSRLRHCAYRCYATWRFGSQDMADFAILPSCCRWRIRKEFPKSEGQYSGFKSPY
Outline: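 100,000 cells/well, plated day -1. Dye 1 h → rinse → compound 1 h, RT → FLIPR^TETRA Ca2+ mobilization. Max RFU minus mean negative control (no agonist); mean agonist-well max as positive control.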

IC50, < 2000 nM:
O=C(Cc1cn2c(C(=O)NCCc3ccccc3)cccc2n1)NCC1(c2ccc(Cl)cc2)CCCCC1 [Compound 979, 2-[2-({[1-(4-chlorophenyl)cyclohexyl]methyl}amino)-2-oxoethyl]-N-(2-phenylethyl) imidazo[1,2-a]pyridine-5-carboxamide]
O=C(Cc1cn2c(C(=O)NC3CCCCC3)cccc2n1)NCC1(c2ccc(Cl)cc2)CCCCC1 [Compound 980, 2-[2-({[1-(4-chlorophenyl)cyclohexyl]methyl}amino)-2-oxoethyl]-N-cyclohexyl-imidazo[1,2-a]pyridine-5-carboxamide]
CC(C)CC(CNC(=O)c1cccc2nc(CCC(=O)O)cn12)c1ccc(C(F)(F)F)cc1 (stereo not drawn) [Compound 986, 3-[5-({4-methyl-2-[4-(trifluoromethyl)phenyl]pentyl}carbamoyl)imidazo[1,2-a]pyridin-2-yl] propanoic acid]
O=C(Cc1cn2c(C(=O)NCC3(N4CCOCC4)CCCCC3)cccc2n1)NC1(CO)CCCC1 [Compound 988, 2-(2-{[1-(hydroxymethyl)cyclopentyl]amino}-2-oxoethyl)-N-[(1-morpholin-4-ylcyclohexyl)methyl] imidazo[1,2-a] pyridine-5-carboxamide]
O=C(O)CC(Cc1ccccc1)c1cn2c(C(=O)NCC34CC5CC(CC(C5)C3)C4)cccc2n1 (stereo not drawn) [Compound 994, 3-{5-[(adamantan-1-ylmethyl)carbamoyl]imidazo[1,2-a]pyridin-2-yl}-4-phenylbutanoic acid]
COc1ccc(C2(CNC(=O)c3cccc4nc(CCC(=O)O)cn34)CCCCC2)cc1 [Compound 998, 3-[5-({[1-(4-methoxyphenyl)cyclohexyl]methyl}carbamoyl)imidazo[1,2-a]pyridin-2-yl]propanoic acid]
CC(C)(C)[Si](C)(C)OCCCn1ccc(NCc2cn3c(C(=O)NCC45CC6CC(CC(C6)C4)C5)cccc3n2)n1 [Compound 999, N-(adamantan-1-ylmethyl)-2-({[1-(3-{[tert-butyl (dimethyl)silyl]oxy}propyl)-1H-pyrazol-3-yl]amino}methyl) imidazo[1,2-a] pyridine-5-carboxamide]
O=C(NCC12CC3CC(CC(C3)C1)C2)c1cccc2nc(CNc3ccn(CCCO)n3)cn12 [Compound 1000, N-(adamantan-1-ylmethyl)-2-({[1-(3-hydroxypropyl)-1H-pyrazol-3-yl]amino}methyl) imidazo [1,2-a]pyridine-5-carboxamide]
CCOC(=O)C(CC1CC1)c1cn2c(C(=O)NCC34CC5CC(CC(C5)C3)C4)cccc2n1 (stereo not drawn) [Compound 1001, ethyl 2-{5-[(adamantan-1-ylmethyl)carbamoyl]imidazo[1,2-a]pyridin-2-yl}-3-cyclopropylpropanoate]
O=C(NCC12CC3CC(CC(C3)C1)C2)c1cccc2nc(C(CC3CC3)C(=O)O)cn12 (stereo not drawn) [Compound 1002, 2-{5-[(adamantan-1-ylmethyl)carbamoyl]imidazo[1,2-a]pyridin-2-yl}-3-cyclopropylpropanoic acid]
O=C(NCC12CC3CC(CC(C3)C1)C2)c1cccc2nc(CC(Cc3ccccc3)C(=O)O)cn12 (stereo not drawn) [Compound 1003, 3-{5-[(adamantan-1-ylmethyl)carbamoyl]imidazo[1,2-a]pyridin-2-yl}-2-benzylpropanoic acid]
CC(C)CC(CNC(=O)c1cccc2nc(CC(Cc3ccccc3)C(=O)O)cn12)c1ccccc1 (stereo not drawn) [Compound 1004, 2-benzyl-3-{5-[(4-methyl-2-phenylpentyl)carbamoyl]imidazo[1,2-a]pyridin-2-yl} propanoic acid]
Cc1ccc(C(CNC(=O)c2cccc3nc(CC(Cc4ccccc4)C(=O)O)cn23)CC(C)C)cc1 (stereo not drawn) [Compound 1005, 2-benzyl-3-(5-{[4-methyl-2-(4-methylphenyl)pentyl]carbamoyl}imidazo[1,2-a]pyridin-2-yl)propanoic acid]
CCCC(CNC(=O)c1cccc2nc(CC(Cc3ccccc3)C(=O)O)cn12)c1ccc(Cl)cc1 (stereo not drawn) [Compound 1006, 2-benzyl-3-(5-{[2-(4-chlorophenyl)pentyl]carbamoyl}imidazo[1,2-a]pyridin-2-yl) propanoic acid]
CC(C)CC(CNC(=O)c1cccc2nc(CC(Cc3ccccc3)C(=O)O)cn12)c1ccc(Cl)cc1 (stereo not drawn) [Compound 1007, 2-benzyl-3-(5-{[2-(4-chlorophenyl)-4-methylpentyl]carbamoyl}imidazo[1,2-a]pyridin-2-yl) propanoic acid]
CC(C)CC(CNC(=O)c1cccc2nc(CC(Cc3ccccc3)C(=O)O)cn12)c1ccc(C(F)(F)F)cc1 (stereo not drawn) [Compound 1008, 2-benzyl-3-[5-({4-methyl-2-[4-(trifluoromethyl)phenyl]pentyl}carbamoyl)imidazo[1,2-a]pyridin-2-yl] propanoic acid]
CCOC(=O)C(CC1CC1)c1cn2c(C(=O)NCC3(c4ccc(Cl)cc4)CCCCC3)cccc2n1 (stereo not drawn) [Compound 1009, ethyl 2-[5-({[1-(4-chlorophenyl)cyclohexyl]methyl}carbamoyl)imidazo[1,2-a]pyridin-2-yl]-3-cyclopropylpropanoate]
O=C(NCC1(c2ccc(Cl)cc2)CCCCC1)c1cccc2nc(C(CC3CC3)C(=O)O)cn12 (stereo not drawn) [Compound 1010, 2-[5-({[1-(4-chlorophenyl)cyclohexyl]methyl}carbamoyl)imidazo[1,2-a]pyridin-2-yl]-3-cyclopropylpropanoic acid]
Cc1ccc(C2(CNC(=O)c3cccc4nc(CC(Cc5ccccc5)C(=O)O)cn34)CCCCC2)cc1 (stereo not drawn) [Compound 1011, 2-benzyl-3-[5-({[1-(4-methylphenyl)cyclohexyl]methyl}carbamoyl)imidazo[1,2-a]pyridin-2-yl] propanoic acid]
O=C(NCC1(c2ccc(F)cc2)CCCCC1)c1cccc2nc(CC(Cc3ccccc3)C(=O)O)cn12 (stereo not drawn) [Compound 1012, 2-benzyl-3-[5-({[1-(4-fluorophenyl)cyclohexyl]methyl}carbamoyl)imidazo[1,2-a]pyridin-2-yl]propanoic acid]
O=C(NCC1(c2ccc(Cl)cc2)CCCCC1)c1cccc2nc(CC(Cc3ccccc3)C(=O)O)cn12 (stereo not drawn) [Compound 1013, 2-benzyl-3-[5-({[1-(4-chlorophenyl)cyclohexyl]methyl}carbamoyl)imidazo[1,2-a]pyridin-2-yl] propanoic acid]
COc1ccc(C2(CNC(=O)c3cccc4nc(CC(Cc5ccccc5)C(=O)O)cn34)CCCCC2)cc1 (stereo not drawn) [Compound 1014, 2-benzyl-3-[5-({[1-(4-methoxyphenyl)cyclohexyl]methyl}carbamoyl)imidazo[1,2-a]pyridin-2-yl]propanoic acid]
CC1(C)C2CC[C@@H](CNC(=O)c3cccc4nc(C(F)(F)F)cn34)C1C2 (stereo partly drawn) [Compound 1016, N-{[(2R)-6,6-dimethylbicyclo [3.1.1]hept-2-yl]methyl}-2-(trifluoromethyl) imidazo [1,2-a]pyridine-5-carboxamide]

same assay, conditions: P2X7 calcium mobilization, Example 4A; 50% decrease in the fluorescence response of cells exposed to 80 μM of (2′(3′)-O-(4-benzoyl-benzoyl)adenosine 5′-triphosephate); read-out: IC50

IC50, < 2000 nM:
O=C(NCC1(c2ccc(C(F)(F)F)cc2)CCCCC1)c1cccc2nc(C(F)(F)F)cn12 [Compound 1018, 2-(trifluoromethyl)-N-({1-[4-(trifluoromethyl)phenyl]cyclohexyl}methyl) imidazo [1,2-a]pyridine-5-carboxamide]
O=C(NCC1(c2ccc(Cl)cc2)CCCCC1)c1cccc2nc(C(F)(F)F)cn12 [Compound 1020, N-{[1-(4-chlorophenyl)cyclohexyl]methyl}-2-(trifluoromethyl) imidazo [1,2-a]pyridine-5-carboxamide]
CC(C)CC(CNC(=O)c1cccc2nc(C(F)(F)F)cn12)c1ccc(Cl)cc1 (stereo not drawn) [Compound 1021, N-[2-(4-chlorophenyl)-4-methylpentyl]-2-(trifluoromethyl) imidazo [1,2-a]pyridine-5-carboxamide]
CC(C)CC(CNC(=O)c1cccc2nc(C(F)(F)F)cn12)c1ccc(C(F)(F)F)cc1 (stereo not drawn) [Compound 1025, N-{4-methyl-2-[4-(trifluoromethyl)phenyl]pentyl}-2-(trifluoromethyl) imidazo [1,2-a]pyridine-5-carboxamide]
COc1ccc(C2(CNC(=O)c3cccc4nc(C(F)(F)F)cn34)CCCCC2)cc1 [Compound 1026, N-{[1-(4-methoxyphenyl)cyclohexyl]methyl}-2-(trifluoromethyl) imidazo [1,2-a]pyridine-5-carboxamide]
CC(=O)c1cn2c(C(=O)NCC(CC(C)C)c3ccc(Cl)cc3)cccc2n1 (stereo not drawn) [Compound 1032, 2-acetyl-N-[2-(4-chlorophenyl)-4-methylpentyl] imidazo[1,2-a] pyridine-5-carboxamlde]
CC(C)CC(CNC(=O)c1cccc2nc(C(C)N3CCC3)cn12)c1ccc(Cl)cc1 (stereo not drawn) [Compound 1033, 2-(1-azetidin-1-ylethyl)-N-[2-(4-chlorophenyl)-4-methylpentyl] imidazo[1,2-a] pyridine-5-carboxamide]
